Measured values reported in PubChem BioAssay (NCI).
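Assay format: 96-well plates, 48-hour exposure. TGI marks complete inhibition of growth.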

Experiments:
Test in all cases: NCI tumour cell line growth inhibition, 48 h
BT-549 breast = tested on: BT-549 breast
SK-MEL-28 melanoma = tested on: SK-MEL-28 melanoma
NCI-H460 lung = tested on: NCI-H460 lung
NCI-H522 lung = tested on: NCI-H522 lung
HS 578T breast = tested on: HS 578T breast
A549 NSCLC = tested on: A549 NSCLC
ACHN renal = tested on: ACHN renal
LOX IMVI melanoma = tested on: LOX IMVI melanoma
MDA-MB-435 = tested on: MDA-MB-435
OVCAR-5 ovarian = tested on: OVCAR-5 ovarian
OVCAR-4 ovarian = tested on: OVCAR-4 ovarian
DU-145 prostate = tested on: DU-145 prostate
U251 CNS = tested on: U251 CNS
A498 renal = tested on: A498 renal
CCRF-CEM leukemia = tested on: CCRF-CEM leukemia
SN12C renal = tested on: SN12C renal
KM12 colon = tested on: KM12 colon
UO-31 renal = tested on: UO-31 renal
SF-539 CNS = tested on: SF-539 CNS
SNB-75 CNS = tested on: SNB-75 CNS
HCC-2998 colon = tested on: HCC-2998 colon
HT29 colon = tested on: HT29 colon
NCI/ADR-RES ovarian = tested on: NCI/ADR-RES ovarian
HL-60(TB) leukemia = tested on: HL-60(TB) leukemia
RXF 393 renal = tested on: RXF 393 renal
MOLT-4 leukemia = tested on: MOLT-4 leukemia
NCI-H23 lung = tested on: NCI-H23 lung
OVCAR-8 ovarian = tested on: OVCAR-8 ovarian
HCT-116 colon = tested on: HCT-116 colon
CAKI-1 renal = tested on: CAKI-1 renal
SW-620 colon = tested on: SW-620 colon
PC-3 prostate = tested on: PC-3 prostate
MDA-N = tested on: MDA-N
IGROV1 ovarian = tested on: IGROV1 ovarian
HOP-92 NSCLC = tested on: HOP-92 NSCLC
SF-295 CNS = tested on: SF-295 CNS
EKVX NSCLC = tested on: EKVX NSCLC
HCT-15 colon = tested on: HCT-15 colon
MDA-MB-231 breast = tested on: MDA-MB-231 breast
COLO 205 colon = tested on: COLO 205 colon
NCI-H226 lung = tested on: NCI-H226 lung
SK-MEL-5 melanoma = tested on: SK-MEL-5 melanoma
786-0 renal = tested on: 786-0 renal
K-562 leukemia = tested on: K-562 leukemia
SK-MEL-2 melanoma = tested on: SK-MEL-2 melanoma
UACC-257 melanoma = tested on: UACC-257 melanoma
SK-OV-3 ovarian = tested on: SK-OV-3 ovarian
HOP-62 NSCLC = tested on: HOP-62 NSCLC
SNB-19 CNS = tested on: SNB-19 CNS
MCF7 breast = tested on: MCF7 breast
OVCAR-3 ovarian = tested on: OVCAR-3 ovarian
MALME-3M melanoma = tested on: MALME-3M melanoma
M14 melanoma = tested on: M14 melanoma
TK-10 renal = tested on: TK-10 renal
SF-268 CNS = tested on: SF-268 CNS
UACC-62 melanoma = tested on: UACC-62 melanoma
SR leukemia = tested on: SR leukemia
T-47D breast = tested on: T-47D breast
RPMI-8226 leukemia = tested on: RPMI-8226 leukemia

Work on `Cc1cc(-c2nc3cc(O)ccc3s2)ccc1N` yielded a TGI (BT-549 breast) of over 100 µM, a TGI (SK-MEL-28 melanoma) of 75.5 µM and a TGI (NCI-H460 lung) of over 100 µM. The TGI (NCI-H522 lung) was over 100 µM, the TGI (HS 578T breast) was over 100 µM and the TGI (A549 NSCLC) was over 100 µM. The TGI (ACHN renal) was 74.7 µM, the TGI (LOX IMVI melanoma) was over 100 µM and the TGI (MDA-MB-435) was over 100 µM. The TGI (OVCAR-5 ovarian) was 75.5 µM, the TGI (OVCAR-4 ovarian) was over 100 µM and the TGI (DU-145 prostate) was over 100 µM. The TGI (U251 CNS) was over 100 µM, the TGI (A498 renal) was 61.7 µM and the TGI (CCRF-CEM leukemia) was 96.8 µM. The TGI (SN12C renal) was 74.2 µM, the TGI (KM12 colon) was 66.6 µM and the TGI (UO-31 renal) was 78.8 µM. For the same compound, the TGI (SF-539 CNS) was 49.3 µM, the TGI (SNB-75 CNS) was 95.5 µM and the TGI (HCC-2998 colon) was over 100 µM. For the same compound, the TGI (HT29 colon) was 50.7 µM, the TGI (NCI/ADR-RES ovarian) was over 100 µM and the TGI (HL-60(TB) leukemia) was over 100 µM. It also gave a TGI (RXF 393 renal) of over 100 µM, a TGI (MOLT-4 leukemia) of over 100 µM and a TGI (NCI-H23 lung) of over 100 µM. It also gave a TGI (OVCAR-8 ovarian) of over 100 µM, a TGI (HCT-116 colon) of 42.7 µM and a TGI (CAKI-1 renal) of over 100 µM. It also gave a TGI (SW-620 colon) of over 100 µM, a TGI (PC-3 prostate) of over 100 µM and a TGI (MDA-N) of over 100 µM. For the same compound, the TGI (IGROV1 ovarian) was over 100 µM, the TGI (HOP-92 NSCLC) was over 100 µM and the TGI (SF-295 CNS) was 73.4 µM. For the same compound, the TGI (EKVX NSCLC) was 60.1 µM, the TGI (HCT-15 colon) was over 100 µM and the TGI (MDA-MB-231 breast) was over 100 µM. It also gave a TGI (COLO 205 colon) of 49.8 µM, a TGI (NCI-H226 lung) of over 100 µM and a TGI (SK-MEL-5 melanoma) of 48 µM. For the same compound, the TGI (786-0 renal) was over 100 µM, the TGI (K-562 leukemia) was over 100 µM and the TGI (SK-MEL-2 melanoma) was 74.4 µM. It also gave a TGI (UACC-257 melanoma) of over 100 µM, a TGI (SK-OV-3 ovarian) of 77.1 µM and a TGI (HOP-62 NSCLC) of over 100 µM. It also gave a TGI (SNB-19 CNS) of over 100 µM, a TGI (MCF7 breast) of over 100 µM and a TGI (OVCAR-3 ovarian) of 67.3 µM. It also gave a TGI (MALME-3M melanoma) of over 100 µM, a TGI (M14 melanoma) of 52.4 µM and a TGI (TK-10 renal) of over 100 µM. The TGI (SF-268 CNS) was over 100 µM, the TGI (UACC-62 melanoma) was 44.2 µM and the TGI (SR leukemia) was over 100 µM. It also gave a TGI (T-47D breast) of 72.3 µM.
`OC(C/C(=N\N=C(/CC(O)(C(F)(F)F)C(F)(F)F)c1ccccc1)c1ccccc1)(C(F)(F)F)C(F)(F)F` gave a TGI (BT-549 breast) of over 10 µM, a TGI (SK-MEL-28 melanoma) of over 10 µM and a TGI (NCI-H460 lung) of over 10 µM. It also gave a TGI (NCI-H522 lung) of over 10 µM, a TGI (HS 578T breast) of over 10 µM and a TGI (A549 NSCLC) of over 10 µM. For the same compound, the TGI (ACHN renal) was over 10 µM, the TGI (LOX IMVI melanoma) was over 10 µM and the TGI (MDA-MB-435) was over 10 µM. For the same compound, the TGI (OVCAR-5 ovarian) was over 10 µM, the TGI (OVCAR-4 ovarian) was over 10 µM and the TGI (DU-145 prostate) was over 10 µM. For the same compound, the TGI (U251 CNS) was over 10 µM, the TGI (A498 renal) was over 10 µM and the TGI (CCRF-CEM leukemia) was over 10 µM. For the same compound, the TGI (SN12C renal) was over 10 µM, the TGI (KM12 colon) was over 10 µM and the TGI (SF-539 CNS) was over 10 µM. For the same compound, the TGI (SNB-75 CNS) was over 10 µM, the TGI (HCC-2998 colon) was over 10 µM and the TGI (HT29 colon) was over 10 µM. The TGI (NCI/ADR-RES ovarian) was over 10 µM, the TGI (HL-60(TB) leukemia) was over 10 µM and the TGI (RXF 393 renal) was over 10 µM. It also gave a TGI (MOLT-4 leukemia) of over 10 µM, a TGI (NCI-H23 lung) of over 10 µM and a TGI (OVCAR-8 ovarian) of over 10 µM. It also gave a TGI (HCT-116 colon) of over 10 µM, a TGI (CAKI-1 renal) of over 10 µM and a TGI (SW-620 colon) of over 10 µM. It also gave a TGI (PC-3 prostate) of over 10 µM, a TGI (MDA-N) of over 10 µM and a TGI (IGROV1 ovarian) of over 10 µM. The TGI (HOP-92 NSCLC) was over 10 µM, the TGI (SF-295 CNS) was over 10 µM and the TGI (EKVX NSCLC) was over 10 µM. The TGI (HCT-15 colon) was over 10 µM, the TGI (MDA-MB-231 breast) was over 10 µM and the TGI (COLO 205 colon) was over 10 µM. The TGI (NCI-H226 lung) was over 10 µM, the TGI (SK-MEL-5 melanoma) was over 10 µM and the TGI (786-0 renal) was over 10 µM. It also gave a TGI (K-562 leukemia) of over 10 µM, a TGI (SK-MEL-2 melanoma) of over 10 µM and a TGI (UACC-257 melanoma) of over 10 µM. The TGI (SK-OV-3 ovarian) was over 10 µM, the TGI (HOP-62 NSCLC) was over 10 µM and the TGI (SNB-19 CNS) was over 10 µM. For the same compound, the TGI (MCF7 breast) was over 10 µM, the TGI (OVCAR-3 ovarian) was over 10 µM and the TGI (MALME-3M melanoma) was over 10 µM. It also gave a TGI (RPMI-8226 leukemia) of over 10 µM, a TGI (M14 melanoma) of over 10 µM and a TGI (TK-10 renal) of over 10 µM. The TGI (SF-268 CNS) was over 10 µM, the TGI (UACC-62 melanoma) was over 10 µM and the TGI (SR leukemia) was over 10 µM. The TGI (T-47D breast) was over 10 µM.
